Measurements: ChEMBL document CHEMBL1129132, “8-amino-6-(arylsulphonyl)-5-nitroquinolines: novel nonpeptide neuropeptide Y1 receptor antagonists” (Bioorg Med Chem Lett, 1996)

Assays:
[1] = biological target: T1, Neuropeptide Y receptor type 1 (Homo sapiens, UniProt P25929); experiment: Compound was tested for binding affinity against neuropeptide Y1 (NPY1) receptor from SK-N-MC membranes using [125I]PYY as radioligand
T1 sequence (P25929 whole entry): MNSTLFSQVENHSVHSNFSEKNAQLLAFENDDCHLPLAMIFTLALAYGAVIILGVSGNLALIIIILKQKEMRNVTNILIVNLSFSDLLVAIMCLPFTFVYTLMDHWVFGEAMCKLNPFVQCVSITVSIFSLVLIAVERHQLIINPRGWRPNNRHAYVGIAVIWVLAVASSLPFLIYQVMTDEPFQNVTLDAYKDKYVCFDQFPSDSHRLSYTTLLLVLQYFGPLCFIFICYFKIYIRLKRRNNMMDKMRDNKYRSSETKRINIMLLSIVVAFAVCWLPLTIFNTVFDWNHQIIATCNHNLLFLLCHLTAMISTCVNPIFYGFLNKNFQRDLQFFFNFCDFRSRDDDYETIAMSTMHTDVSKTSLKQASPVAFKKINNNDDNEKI

[2] = biological target: T2, Neuropeptide Y receptor type 2 (Rattus norvegicus, UniProt Q9ERC0); experiment: Compound was tested for binding affinity against neuropeptide Y2 (NPY2) receptor from rat hippocampi.; format: tissue-based, Hippocampus
T2 sequence (Q9ERC0 whole entry): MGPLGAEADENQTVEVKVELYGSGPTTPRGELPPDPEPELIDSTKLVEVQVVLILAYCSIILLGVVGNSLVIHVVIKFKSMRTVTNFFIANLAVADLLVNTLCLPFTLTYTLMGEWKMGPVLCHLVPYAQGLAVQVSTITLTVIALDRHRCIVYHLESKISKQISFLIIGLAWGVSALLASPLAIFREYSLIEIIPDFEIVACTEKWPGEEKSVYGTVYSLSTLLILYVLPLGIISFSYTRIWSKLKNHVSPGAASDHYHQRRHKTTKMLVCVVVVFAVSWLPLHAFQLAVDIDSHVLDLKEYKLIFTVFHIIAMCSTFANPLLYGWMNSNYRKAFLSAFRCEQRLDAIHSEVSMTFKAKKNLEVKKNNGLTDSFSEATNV

| SMILES | Ki [1] [µM] | IC50 [2] [µM] | Ki [2] [µM] |
| --- | --- | --- | --- |
| Nc1ccc(Sc2cc(N)c3ncccc3c2[N+](=O)[O-])cc1 | > 10 |  |  |
| Nc1ccc([S+]([O-])c2cc(N)c3ncccc3c2[N+](=O)[O-])cc1 (configuration not stated) | 1.25 |  |  |
| Nc1ccc(S(=O)(=O)c2cc(N)c3ncccc3c2)cc1 | > 10 |  |  |
| Cc1cc(S(=O)(=O)c2ccccc2)c([N+](=O)[O-])c2cccnc12 | > 10 |  |  |
| CC(C)c1ccccc1S(=O)(=O)c1cc(N)c2ncccc2c1[N+](=O)[O-] |  | 10 |  |
| CS(=O)(=O)c1cc(N)c2ncccc2c1[N+](=O)[O-] | > 10 |  |  |
| Nc1ccc(S(=O)(=O)c2cc(N)c3ncccc3c2[N+](=O)[O-])cc1 | 0.282 |  | > 10 |
| Nc1ccc(S(=O)(=O)c2cc(N)c3ncccc3c2N)cc1 | > 10 |  |  |
| CNc1cc(S(=O)(=O)c2ccccc2)c([N+](=O)[O-])c2cccnc12 | > 10 |  |  |
| Nc1cc(NS(=O)(=O)c2ccccc2)c([N+](=O)[O-])c2cccnc12 | > 10 |  |  |
| Nc1ccc(S(=O)(=O)c2ccc3ncccc3c2[N+](=O)[O-])cc1 | > 10 |  |  |
